{"source": "PubChem BioAssay AID2060625", "about": "(Molecular Pharmacology Branch, DTP, NCI, 2025);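 also: compound exposure lasted seven days before readout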;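 as to viability, T/C: 100% = DMSO vehicle control wells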", "system": "186277-243-T-J2-PDC spheroids with HUVEC/MSC, viability", "assay": "Anticancer human tumor 186277-243-T-J2-PDC patient-derived colon adenocarcinoma cell line growth inhibition [CLK]", "settings": "for IC50: curve of first compound; for viability, T/C: stronger effect = lower value", "excerpt": "A high-throughput screen of multi-cell type tumor spheroids was designed to identify active combinations of […] and targeted small molecules. Complex spheroids include a stromal component modeled by human endothelial cells (HUVEC) and fibroblasts modeled by human mesenchymal stem cells (MSCs). The concentration ranges selected for each drug and investigational agent were based upon clinically achievable concentrations if the clinical Cmax of the agent was known.\nCompounds. The drugs and investigational agents: cirtuvivint (SM08502; NSC835563), CC-671 (NSC850746), vemurafenib (NSC761431), tapotoclax (NSC804041), sotorasib (NSC818433), adagrasib (NSC831453), MRTX-1133 (NSC836407), BAY2416964 (NSC825713), copanlisib (NSC816437), inavolisib (NSC800729), abemaciclib (NSC768073), osimertinib (NSC779217), entinostat (NSC756642), eltanexor (KPT-8602, NSC794443), venetoclax (NSC766270), ceralasertib (NSC777638), bortezomib (NSC756655), olaparib (NSC753686), talazoparib (NSC767125), alisertib (NSC759677), peposertib (NSC802822), gemcitabine (NSC613327), 5-fluorouracil (NSC19893), SN-38 (NSC673596), oxaliplatin (NSC266046), paclitaxel (NSC125973), and doxorubicin (NSC123127), were obtained from the National Cancer Institute (NCI) Developmental Therapeutics Program Chemical Repository. The FDA-approved anticancer drug set is available from the Developmental Therapeutics Program at https://dtp.cancer.gov/organization/dscb/obtaining/available plates.htm. […] The stock solutions were prepared in dimethyl sulfoxide (DMSO, Sigma-Aldrich, St. Louis, MO, cat. D2650), except for the platinum complexes which were prepared in saline (Quality Biological, Gaithersburg, MD, cat. 114-055-101), at 800-fold the tested concentration and stored at -70 degrees C prior to their use. All drugs and investigational agents were tested over a range starting from a high concentration at or near the clinical Cmax and decreasing in half-log increments. If the clinical Cmax for an agent had not been determined, the highest concentration tested was 10 microM.\nCell Culture. All cells were maintained in an incubator at 37 degrees C and 5% CO2 with 95% humidity. The PDC lines were cultured according to standard operating procedures established by the NCI PDMR. Briefly, all PDCs were thawed and cultured in Matrigel-coated flasks prepared with a working solution of 1X Ham's F-12 nutrient mix, without supplementation (Invitrogen, Waltham, MA, cat. 11765054), 100 U/mL penicillin-streptomycin (Invitrogen, cat. 15140122), and 2.5% Matrigel (Corning Inc., Corning, NY, cat. 354248) for the first three passages. The 947758-054-R-J2-PDC line was cultured in 6B/Colon 1A media, which includes advanced DMEM/F-12 (Thermo Fisher Scientific, cat. 12634028), 10 mM HEPES (Thermo Fisher Scientific, cat. 15630080), 1X GlutaMAX supplement (Thermo Fisher Scientific, cat. 35050061), 0.1 mg/mL primocin (InvivoGen, cat. ant-pm-2), 10% defined fetal bovine serum, heat inactivated (HyClone Laboratories Inc., cat. SH30070.03HI), 1.25 mM N-Acetyl-L-cysteine (Sigma-Aldrich, cat. A9165), 10 mM nicotinamide (Sigma-Aldrich, cat. N0636), 1X B-27 supplement (Thermo Fisher Scientific, cat. 17504044), 1X N-2 supplement (Thermo Fisher Scientific, cat. 17502048), and 10 microM Y-27632 dihydrochloride (Tocris Bioscience, cat. 1254). The 876862-298-R-J1-PDC was cultured in 6E media, which includes all 6B/Colon 1A media components plus 50% L-WRN conditioned media (ATCC, cat. CRL-3276), 50 ng/mL recombinant human EGF recombinant protein (hEGF; Thermo Fisher Scientific, cat. PHG0311), 10 ng/mL recombinant human fibroblast growth factor 10 (hGFG-10; PeproTech, cat. 100-26), 1 ng/mL recombinant human fibroblast growth factor 2 (hFGF-2; PeproTech, cat. 100-18B), and 1 µM prostaglandin E2 (PGE2; Tocris, cat. 2296). The 227483-062-R1-J1-PDC line was cultured in Panc media, containing all 6E components except hFGF-2, with the addition of 500 nM SB-431542 (Selleckchem, cat. S1067) and 10 nM gastrin (Tocris, cat. 3006). […]"}
{"smiles": "CC(Nc1ccc2c(c1)OCCn1cc(N3C(=O)OCC3C(F)F)nc1-2)C(N)=O", "note": "(configuration not stated) + CN1CCN(c2cc(C(=O)Nc3cc4cc(-c5cnn(C)c5)ccc4cn3)ccn2)CC1", "values": [{"measurement": "IC50", "setting": "second compound 0.0316 µM", "value": 0.828, "unit": "µM"}, {"measurement": "IC50", "setting": "second compound 0.1 µM", "value": 0.158, "unit": "µM"}, {"measurement": "IC50", "setting": "second compound 0.316 µM", "value": "< 0.0316", "unit": "µM"}, {"measurement": "IC50", "setting": "second compound 1 µM", "value": "< 0.0316", "unit": "µM"}, {"measurement": "IC50", "setting": "second compound 3.16 µM", "value": "< 0.0316", "unit": "µM"}, {"measurement": "IC50", "setting": "second compound 10 µM", "value": "< 0.0316", "unit": "µM"}, {"measurement": "viability, T/C", "setting": "second compound 0.0316 µM, first compound 0.0316 µM", "value": 87.7, "unit": "%"}, {"measurement": "viability, T/C", "setting": "second compound 0.0316 µM, first compound 0.1 µM", "value": 94.8, "unit": "%"}, {"measurement": "viability, T/C", "setting": "second compound 0.0316 µM, first compound 0.316 µM", "value": 59.2, "unit": "%"}, {"measurement": "viability, T/C", "setting": "second compound 0.0316 µM, first compound 1 µM", "value": 55.8, "unit": "%"}, {"measurement": "viability, T/C", "setting": "second compound 0.0316 µM, first compound 3.16 µM", "value": 46.4, "unit": "%"}, {"measurement": "viability, T/C", "setting": "second compound 0.0316 µM, first compound 10 µM", "value": 42.4, "unit": "%"}, {"measurement": "viability, T/C", "setting": "second compound 0.1 µM, first compound 0.0316 µM", "value": 71.8, "unit": "%"}, {"measurement": "viability, T/C", "setting": "second compound 0.1 µM, first compound 0.1 µM", "value": 54.4, "unit": "%"}, {"measurement": "viability, T/C", "setting": "second compound 0.1 µM, first compound 0.316 µM", "value": 42.3, "unit": "%"}, {"measurement": "viability, T/C", "setting": "second compound 0.1 µM, first compound 1 µM", "value": 30.4, "unit": "%"}, {"measurement": "viability, T/C", "setting": "second compound 0.1 µM, first compound 3.16 µM", "value": 19.4, "unit": "%"}, {"measurement": "viability, T/C", "setting": "second compound 0.1 µM, first compound 10 µM", "value": 13.4, "unit": "%"}, {"measurement": "viability, T/C", "setting": "second compound 0.316 µM, first compound 0.0316 µM", "value": 20.5, "unit": "%"}, {"measurement": "viability, T/C", "setting": "second compound 0.316 µM, first compound 0.1 µM", "value": 17.4, "unit": "%"}, {"measurement": "viability, T/C", "setting": "second compound 0.316 µM, first compound 0.316 µM", "value": 7.85, "unit": "%"}, {"measurement": "viability, T/C", "setting": "second compound 0.316 µM, first compound 1 µM", "value": 3.43, "unit": "%"}, {"measurement": "viability, T/C", "setting": "second compound 0.316 µM, first compound 3.16 µM", "value": 2.25, "unit": "%"}, {"measurement": "viability, T/C", "setting": "second compound 0.316 µM, first compound 10 µM", "value": 1.31, "unit": "%"}, {"measurement": "viability, T/C", "setting": "second compound 1 µM, first compound 0.0316 µM", "value": 0.25, "unit": "%"}, {"measurement": "viability, T/C", "setting": "second compound 1 µM, first compound 0.1 µM", "value": 0.73, "unit": "%"}, {"measurement": "viability, T/C", "setting": "second compound 1 µM, first compound 0.316 µM", "value": 0.91, "unit": "%"}, {"measurement": "viability, T/C", "setting": "second compound 1 µM, first compound 1 µM", "value": 0.46, "unit": "%"}, {"measurement": "viability, T/C", "setting": "second compound 1 µM, first compound 3.16 µM", "value": 0.47, "unit": "%"}, {"measurement": "viability, T/C", "setting": "second compound 1 µM, first compound 10 µM", "value": 1.48, "unit": "%"}, {"measurement": "viability, T/C", "setting": "second compound 3.16 µM, first compound 0.0316 µM", "value": 1.24, "unit": "%"}, {"measurement": "viability, T/C", "setting": "second compound 3.16 µM, first compound 0.1 µM", "value": 0.72, "unit": "%"}, {"measurement": "viability, T/C", "setting": "second compound 3.16 µM, first compound 0.316 µM", "value": 1.34, "unit": "%"}, {"measurement": "viability, T/C", "setting": "second compound 3.16 µM, first compound 1 µM", "value": 0.69, "unit": "%"}, {"measurement": "viability, T/C", "setting": "second compound 3.16 µM, first compound 3.16 µM", "value": 0.82, "unit": "%"}, {"measurement": "viability, T/C", "setting": "second compound 3.16 µM, first compound 10 µM", "value": 0.74, "unit": "%"}, {"measurement": "viability, T/C", "setting": "second compound 10 µM, first compound 0.0316 µM", "value": 0.96, "unit": "%"}, {"measurement": "viability, T/C", "setting": "second compound 10 µM, first compound 0.1 µM", "value": 1.39, "unit": "%"}, {"measurement": "viability, T/C", "setting": "second compound 10 µM, first compound 0.316 µM", "value": 0.74, "unit": "%"}, {"measurement": "viability, T/C", "setting": "second compound 10 µM, first compound 1 µM", "value": 0.87, "unit": "%"}, {"measurement": "viability, T/C", "setting": "second compound 10 µM, first compound 3.16 µM", "value": 0.87, "unit": "%"}, {"measurement": "viability, T/C", "setting": "second compound 10 µM, first compound 10 µM", "value": 0.69, "unit": "%"}]}
